From patent US10519211B2, “Compounds as peptidic GLP1/glucagon/GIP receptor agonists” (SANOFI, priority 2016, dated 2019)
Numbered stars: 1 amine (or outer) side, 2 acyl side, 3 side chain; on linkers, the order of the positions; unused ones are H or OH. Square brackets hold non-standard residues; d marks the D form. Side chains are listed from the residue outwards. Peptide text beside a SMILES is read from it. * marks the point of attachment. γGlu = O=C(O)[C@H](CCC(=O)[*:2])N[*:1]; Stearoyl = CCCCCCCCCCCCCCCCCC(=O)*; Palmitoyl = CCCCCCCCCCCCCCCC(=O)*; AEEA = NCCOCCOCC(=O)O; Aib = CC(C)(N)C(=O)O

Columns and labels:
[1] = biological target: T1, human GLP-1 receptor (hGLP-1 R) (Homo sapiens, UniProt P43220); experiment: cAMP response (HTRF) of HEK-293 cells stably expressing human GLP-1 receptor; format: cell-based; conditions: Table 8; cAMP formation
T1 construct: expressed in transfected cells; host or cells: HEK-293
T1 sequence (P43220 24-463): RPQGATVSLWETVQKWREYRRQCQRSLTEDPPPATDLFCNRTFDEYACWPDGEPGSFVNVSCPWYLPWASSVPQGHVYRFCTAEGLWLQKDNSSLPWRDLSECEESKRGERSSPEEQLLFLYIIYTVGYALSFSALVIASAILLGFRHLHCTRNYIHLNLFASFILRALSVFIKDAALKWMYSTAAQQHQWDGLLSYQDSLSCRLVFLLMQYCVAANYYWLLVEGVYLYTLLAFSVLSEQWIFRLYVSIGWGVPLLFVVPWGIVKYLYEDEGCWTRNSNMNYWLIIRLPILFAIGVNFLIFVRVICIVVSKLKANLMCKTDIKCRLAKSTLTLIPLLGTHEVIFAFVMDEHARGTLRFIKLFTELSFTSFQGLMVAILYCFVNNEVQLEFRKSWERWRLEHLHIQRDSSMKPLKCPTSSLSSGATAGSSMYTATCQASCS
Description: (§1) cAMP content of cells was determined using a kit from Cisbio Corp. (cat. no. 62AM4PEJ) based on HTRF (Homogenous Time Resolved Fluorescence). For preparation, cells were split into T175 culture flasks and grown overnight to near confluency in medium (DMEM/10% FBS). Medium was then removed and cells washed with PBS lacking calcium and magnesium, followed by proteinase treatment with accutase (Sigma-Aldrich cat. no. A6964). Detached cells were washed and resuspended in assay buffer (1×HBSS; 20 mM HEPES, 0.1% BSA, 2 mM IBMX) and cellular density determined. They were then diluted to 400000 cells/ml and 25 μl-aliquots dispensed into the wells of 96-well plates. For measurement, 25 μl of test compound in assay buffer was added to the wells, followed by incubation for 30 minutes at room temperature.
(§2) Potencies of peptidic compounds at the GLP-1, glucagon and GIP receptors were determined by exposing cells expressing human glucagon receptor (hGlucagon R), human GIP receptor (hGIP-R) or human GLP-1 receptor (hGLP-1 R) to the listed compounds at increasing concentrations and measuring the formed cAMP as described in Methods.

[2] = Chemical stability assessment (UPLC-UV, relative purity loss); format: physicochemical; conditions: 1 mg/ml, 25 mM acetate buffer pH 4.5 with m-cresol (buffer system A)
Method in brief: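 Peptide at 1 mg/mL (purity-corrected) in 25 mM acetate pH 4.5 with methionine, m-cresol and glycerol, sterile-filtered, stored 28 days at 40° C. Purity measured by UPLC-UV as peptide peak area fraction at start and after storage; value is relative percent purity loss.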

[3] = Solubility assessment (UPLC-UV); format: physicochemical; conditions: acetate buffer pH 4.5, 2.7 mg/ml m-cresol (buffer system A), target 10 mg/ml
Method in brief: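 Peptides at 10 mg/mL (purity-corrected, by UPLC/MS) in 100 mM acetate buffer pH 4.5 with 2.7 mg/ml m-Cresol, gently agitated 1 hour, then centrifuged 15 min at 2500 RCF. Supernatant, diluted 1:10, quantified by UPLC-UV peak area against a reference peptide standard curve, extinction-coefficient corrected.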

[4] = Dynamic light scattering (DLS), hydrodynamic radius as surrogate for interaction parameter kD; format: physicochemical; conditions: for Delta Rh [nm] = Rh5 − Rh1: DLS buffer system A pH 4.5; for Rh1 [nm] c= 1 mg/ml / Rh5 [nm] c = 5 mg/ml: hydrodynamic radius, DLS buffer system A pH 4.5, DLS method C, 25° C.
Description: For every peptide solution, the hydrodynamic radius Rh and the diffusion constant D (related via the Stokes-Einstein equation) were determined as an average over triplicates. Both parameters were determined at different concentrations (e.g., Rh1 and D1: 1 mg/ml and Rh5 and D5: 5 mg/ml) in the same buffer system. The difference of these parameters between low and high peptide concentration is a surrogate for the DLS interaction parameter kD. Rh5<Rh1 or D5>D1 correspond to kD>0 and therefore to repulsive inter-particle interactions that result in improved physical (or colloidal) stability.
DLS buffer system A) 25 mM acetate buffer pH4.5, 3 mg/mL L-Methionine, 2.7 mg/mL m-cresol, 18 mg/mL Glycerol 85%
DLS Method C: DLS measurements were performed on a DynaPro Plate Reader II (Wyatt Technology, Santa Barbara, Calif., US) and using one of the following black, low volume, and non-treated plates: polystyrene 384 assay plate with clear bottom (Corning, N.Y., US), polystyrene 96 assay plate with clear bottom (Corning, N.Y., US), cyclo olefin polymer (COP) 384 assay plate with clear bottom (Aurora, Mont., US), or polystyrene 384 assay plate with clear bottom (Greiner Bio-One, Germany). The data were processed with the Dynamics software provided by Wyatt Technology. Parameters of the particle size distribution were determined with non-negatively constrained least squares (NNLS) methods using DynaLS algorithms. Measurements were taken at 25° C. with an 830 nm laser light source at an angle of 158°.
The hydrodynamic radius radius Rh of peptide samples was determined at different peptide concentrations (1 mg/ml and 5 mg/ml) in DLS buffer system A using DLS method C as described in Methods as surrogate for the DLS interaction parameter kD.

[5] = biological target: T2, human glucagon receptor (hGlucagon R) (Homo sapiens, UniProt P47871); experiment: cAMP response (HTRF) of HEK-293 cells stably expressing human glucagon receptor; format: cell-based; conditions: Table 8; cAMP formation
T2 construct: expressed in transfected cells; host or cells: HEK-293
T2 sequence (P47871 26-477): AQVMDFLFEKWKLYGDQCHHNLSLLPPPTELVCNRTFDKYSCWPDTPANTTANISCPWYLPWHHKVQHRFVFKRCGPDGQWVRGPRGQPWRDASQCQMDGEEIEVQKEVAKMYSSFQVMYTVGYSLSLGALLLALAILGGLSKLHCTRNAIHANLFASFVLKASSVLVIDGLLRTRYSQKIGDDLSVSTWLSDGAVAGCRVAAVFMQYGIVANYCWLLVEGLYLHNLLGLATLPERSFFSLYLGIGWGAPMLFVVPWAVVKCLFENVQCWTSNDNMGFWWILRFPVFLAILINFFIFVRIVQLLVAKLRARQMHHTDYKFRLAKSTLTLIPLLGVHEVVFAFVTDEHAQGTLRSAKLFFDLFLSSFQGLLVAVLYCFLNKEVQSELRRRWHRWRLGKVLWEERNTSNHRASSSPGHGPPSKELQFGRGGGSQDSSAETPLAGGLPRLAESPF
Description: as §1, §2

[6] = Thioflavin T (ThT) assay for physical stability (fibrillation); format: physicochemical; conditions: 3 mg/ml, 100 mM acetate pH 4.5 with m-cresol, shaking at 37° C.
Method in brief: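 Peptide at 3 mg/ml with 100 μM ThT in 100 mM acetate pH 4.5 with m-cresol, stressed at 37° C by cycles of 10 s shaking at 960 rpm and 50 s rest. Fluorescence read every 20 minutes, eight replicates; lag time in hours.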

| Compound | EC50 [1] [pM] | Chemical stability [relative purity loss 28 days 40° C.] (%) at pH 4.5 [2] [%] | solubility at 1 h [3] [µg/mL] | Delta Rh [nm] = Rh5 − Rh1 [4] [nm] | Rh1 [nm] c= 1 mg/ml [4] [nm] | Rh5 [nm] c = 5 mg/ml [4] [nm] | EC50 [5] [pM] | Lag time before increase [6] [h] |
| --- | --- | --- | --- | --- | --- | --- | --- | --- |
| CCCCCCCCCCCCCCCCCC(=O)N[C@@H](CCC(=O)NCCCC[C@H](NC(=O)[C@H](CC(C)C)NC(=O)[C@H](CCCCN)NC(=O)[C@H](CO)NC(=O)[C@H](CC(C)C)NC(=O)[C@H](CC(=O)O)NC(=O)[C@H](CO)NC(=O)[C@@H](NC(=O)[C@H](Cc1ccccc1)NC(=O)[C@@H](NC(=O)CNC(=O)[C@H](CCC(N)=O)NC(=O)C(C)(C)NC(=O)[C@@H](N)Cc1c[nH]cn1)[C@@H](C)O)[C@@H](C)O)C(=O)N[C@@H](CCC(=O)O)C(=O)N[C@@H](CCCCN)C(=O)N[C@@H](CCC(N)=O)C(=O)N[C@@H](CCCNC(=N)N)C(=O)N[C@@H](CCC(N)=O)C(=O)NC(C)(C)C(=O)N[C@@H](CCC(=O)O)C(=O)N[C@@H](Cc1ccccc1)C(=O)N[C@H](C(=O)N[C@@H](CCC(=O)O)C(=O)N[C@@H](Cc1c[nH]c2ccccc12)C(=O)N[C@@H](CC(C)C)C(=O)N[C@@H](CCCCN)C(=O)N[C@@H](C)C(=O)NCC(=O)NCC(=O)N1CCC[C@H]1C(=O)N1CCC[C@H]1C(=O)N[C@@H](CO)C(=O)NC(C)(C)C(=O)N[C@@H](CCCCN)C(=O)N1CCC[C@H]1C(=O)N1CCC[C@H]1C(=O)N1CCC[C@H]1C(=O)N[C@@H](CCCCN)C(N)=O)[C@@H](C)CC)C(=O)O [SEQ ID NO: 15, H-Aib-Q-G-T-F-T-S-D-L-S-K-L-K[gGlu-Stea]-E-K-Q-R-Q-Aib-E-F-I-E-W-L-K-A-G-G-P-P-S-Aib-K-P-P-P-K-NH2] (H-H[Aib]QGTFTSDLSKLK([γGlu-Stearoyl])EKQRQ[Aib]EFIEWLKAGGPPS[Aib]KPPPK-NH2) | 5.7 | 5.6 | > 8900 | −0.2 | 2.7 | 2.6 | – | – |
| CCCCCCCCCCCCCCCC(=O)N[C@@H](CCC(=O)NCCCC[C@H](NC(=O)[C@H](CC(C)C)NC(=O)[C@H](CCCCN)NC(=O)[C@H](CO)NC(=O)[C@H](CC(C)C)NC(=O)[C@H](CC(=O)O)NC(=O)[C@H](CO)NC(=O)[C@@H](NC(=O)[C@H](Cc1ccccc1)NC(=O)[C@@H](NC(=O)CNC(=O)[C@H](CCC(N)=O)NC(=O)C(C)(C)NC(=O)[C@@H](N)Cc1c[nH]cn1)[C@@H](C)O)[C@@H](C)O)C(=O)N[C@@H](CCC(=O)O)C(=O)N[C@@H](CCCCN)C(=O)N[C@@H](CCC(N)=O)C(=O)N[C@@H](CCCNC(=N)N)C(=O)N[C@@H](CCC(N)=O)C(=O)NC(C)(C)C(=O)N[C@@H](CCC(=O)O)C(=O)N[C@@H](Cc1ccccc1)C(=O)N[C@H](C(=O)N[C@@H](CCC(=O)O)C(=O)N[C@@H](Cc1c[nH]c2ccccc12)C(=O)N[C@@H](CC(C)C)C(=O)N[C@@H](CCCCN)C(=O)N[C@@H](C)C(=O)NCC(=O)NCC(=O)N1CCC[C@H]1C(=O)N1CCC[C@H]1C(=O)N[C@@H](CO)C(=O)NC(C)(C)C(=O)N[C@@H](CCCCN)C(=O)N1CCC[C@H]1C(=O)N1CCC[C@H]1C(=O)N1CCC[C@H]1C(=O)N[C@@H](CCCCN)C(N)=O)[C@@H](C)CC)C(=O)O [SEQ ID NO: 14, H-Aib-Q-G-T-F-T-S-D-L-S-K-L-K[gGlu-Palm]-E-K-Q-R-Q-Aib-E-F-I-E-W-L-K-A-G-G-P-P-S-Aib-K-P-P-P-K-NH2] | 5.7 | 5.5 | > 9300 | −0.2 | 2.7 | 2.4 | – | – |
| CCCCCCCCCCCCCCCC(=O)NCCOCCOCC(=O)N[C@@H](CCC(=O)N[C@@H](CCC(=O)NCCCC[C@H](NC(=O)[C@H](CC(C)C)NC(=O)[C@H](CCCCN)NC(=O)[C@H](CO)NC(=O)[C@H](CC(C)C)NC(=O)[C@H](CC(=O)O)NC(=O)[C@H](CO)NC(=O)[C@@H](NC(=O)[C@H](Cc1ccccc1)NC(=O)[C@@H](NC(=O)CNC(=O)[C@H](CCC(N)=O)NC(=O)C(C)(C)NC(=O)[C@@H](N)Cc1c[nH]cn1)[C@@H](C)O)[C@@H](C)O)C(=O)N[C@@H](CCC(=O)O)C(=O)N[C@@H](CCCCN)C(=O)N[C@@H](CCC(N)=O)C(=O)N[C@@H](CCCNC(=N)N)C(=O)N[C@@H](CCC(N)=O)C(=O)NC(C)(C)C(=O)N[C@@H](CCC(=O)O)C(=O)N[C@@H](Cc1ccccc1)C(=O)N[C@H](C(=O)N[C@@H](CCC(=O)O)C(=O)N[C@@H](Cc1c[nH]c2ccccc12)C(=O)N[C@@H](CC(C)C)C(=O)N[C@@H](CCCCN)C(=O)N[C@@H](C)C(=O)N[C@H](C)C(=O)NCC(=O)N[C@@H](Cc1c[nH]cn1)C(=O)N1CCC[C@H]1C(=O)N[C@@H](CO)C(=O)NC(C)(C)C(=O)N[C@@H](CCCCN)C(=O)N1CCC[C@H]1C(=O)N1CCC[C@H]1C(=O)N1CCC[C@H]1C(=O)N[C@@H](CCCCN)C(N)=O)[C@@H](C)CC)C(=O)O)C(=O)O [SEQ ID NO: 17, H-Aib-Q-G-T-F-T-S-D-L-S-K-L-K[gGlu-gGlu-AEEA-Palm]-E-K-Q-R-Q-Aib-E-F-I-E-W-L-K-A-dAla-G-H-P-S-Aib-K-P-P-P-K-NH2] (H-H[Aib]QGTFTSDLSKLK([γGlu-γGlu-AEEA-Palmitoyl])EKQRQ[Aib]EFIEWLKA[dA]GHPS[Aib]KPPPK-NH2) | – | 6.4 | > 9200 | −0.5 | 2.9 | 2.4 | 22 | >45 |
| CCCCCCCCCCCCCCCC(=O)N[C@@H](CCC(=O)N[C@@H](CCC(=O)NCCCC[C@H](NC(=O)[C@H](CC(C)C)NC(=O)[C@H](CCCCN)NC(=O)[C@H](CO)NC(=O)[C@H](CC(C)C)NC(=O)[C@H](CC(=O)O)NC(=O)[C@H](CO)NC(=O)[C@@H](NC(=O)[C@H](Cc1ccccc1)NC(=O)[C@@H](NC(=O)CNC(=O)[C@H](CCC(N)=O)NC(=O)C(C)(C)NC(=O)[C@@H](N)Cc1c[nH]cn1)[C@@H](C)O)[C@@H](C)O)C(=O)N[C@@H](CCC(=O)O)C(=O)N[C@@H](CCCCN)C(=O)N[C@@H](CCC(N)=O)C(=O)N[C@@H](CCCNC(=N)N)C(=O)N[C@@H](CCC(N)=O)C(=O)NC(C)(C)C(=O)N[C@@H](CCC(=O)O)C(=O)N[C@@H](Cc1ccccc1)C(=O)N[C@H](C(=O)N[C@@H](CCC(=O)O)C(=O)N[C@@H](Cc1c[nH]c2ccccc12)C(=O)N[C@@H](CC(C)C)C(=O)N[C@@H](CCCCN)C(=O)N[C@@H](C)C(=O)NCC(=O)NCC(=O)N[C@@H](Cc1c[nH]cn1)C(=O)N1CCC[C@H]1C(=O)N[C@@H](CO)C(=O)NC(C)(C)C(=O)N[C@@H](CCCCN)C(=O)N1CCC[C@H]1C(=O)N1CCC[C@H]1C(=O)N1CCC[C@H]1C(=O)N[C@@H](CCCCN)C(N)=O)[C@@H](C)CC)C(=O)O)C(=O)O [SEQ ID NO: 12, H-Aib-Q-G-T-F-T-S-D-L-S-K-L-K[gGlu-gGlu-Palm]-E-K-Q-R-Q-Aib-E-F-I-E-W-L-K-A-G-G-H-P-S-Aib-K-P-P-P-K-NH2] | – | 5.4 | > 9300 | – | – | – | 22 | >45 |
